ChEMBL document CHEMBL1177888, “Mn(II), Co(II) and Zn(II) complexes with heterocyclic substituted thiosemicarbazones: synthesis, characterization, X-ray crystal structures and antitumor comparison” (Eur J Med Chem, 2010)

Test system: K562
Experiment: Cytotoxicity against human K562 cells after 48 hrs by MTT assay
Type: functional, cell-based
Conditions: K562, 48 h

Structure (SMILES)	IC50
C/C(=N\NC(N)=S)c1ccccn1	29.7 µM
S=C(N/N=C(\c1ccccc1)c1ccccn1)Nc1ccccc1	1.43 µM
CNC(=S)N/N=C(\C)c1ccccn1	4.58 µM
